Assay: xn = mol fraction of the nth substance listed
Conditions: 100 kPa, Liquid; for viscosity: Concentric cylinders viscometry; for mass density: Vibrating tube method

CCC=O [propanal] + CCCC(C)O
Conditions	mass density [kg/m3]	viscosity [mPa·s]
293.15 K, x1 = 0.0809	811	3.75
293.15 K, x1 = 0.1599	813.1	3.51
293.15 K, x1 = 0.2402	814.7	3.25
293.15 K, x1 = 0.35	816.4	2.87
293.15 K, x1 = 0.44	817	2.54
293.15 K, x1 = 0.5599	816.7	2.08
293.15 K, x1 = 0.65	815.8	1.73
293.15 K, x1 = 0.74	814.1	1.38
293.15 K, x1 = 0.85	810.6	0.94
293.15 K, x1 = 0.94	806.5	0.57
293.15 K, x1 = 1	802.4	0.34
298.15 K, x1 = 0.0809	806.6	3.11
298.15 K, x1 = 0.1599	808	2.91
298.15 K, x1 = 0.2402	809.2	2.71
298.15 K, x1 = 0.35	809.9	2.42
298.15 K, x1 = 0.44	810.2	2.15
298.15 K, x1 = 0.5599	809.5	1.78
298.15 K, x1 = 0.65	808.4	1.49
298.15 K, x1 = 0.74	806.6	1.2
298.15 K, x1 = 0.85	803.4	0.83
298.15 K, x1 = 0.94	799.8	0.52
298.15 K, x1 = 1	796.2	0.33
303.15 K, x1 = 0.0809	802.1	2.64
303.15 K, x1 = 0.1599	803.2	2.47
303.15 K, x1 = 0.2402	804	2.29
303.15 K, x1 = 0.35	804.5	2.04
303.15 K, x1 = 0.44	804.4	1.82
303.15 K, x1 = 0.5599	803.5	1.52
303.15 K, x1 = 0.65	802.2	1.29
303.15 K, x1 = 0.74	800.4	1.04
303.15 K, x1 = 0.85	797.1	0.73
303.15 K, x1 = 0.94	793.6	0.47
303.15 K, x1 = 1	790.3	0.31
308.15 K, x1 = 0.0809	797.7	2.24
308.15 K, x1 = 0.1599	798.5	2.11
308.15 K, x1 = 0.2402	798.9	1.96
308.15 K, x1 = 0.35	799	1.74
308.15 K, x1 = 0.44	798.7	1.55
308.15 K, x1 = 0.5599	797.5	1.29
308.15 K, x1 = 0.65	796.1	1.1
308.15 K, x1 = 0.74	794.2	0.89
308.15 K, x1 = 0.85	791	0.64
308.15 K, x1 = 0.94	787.6	0.43
308.15 K, x1 = 1	784.5	0.3
313.15 K, x1 = 0.0809	793.1	1.88
313.15 K, x1 = 0.1599	793.6	1.76
313.15 K, x1 = 0.2402	793.9	1.63
313.15 K, x1 = 0.35	793.8	1.45
313.15 K, x1 = 0.44	793.3	1.3
313.15 K, x1 = 0.5599	792	1.09
313.15 K, x1 = 0.65	790.5	0.92
313.15 K, x1 = 0.74	788.5	0.75
313.15 K, x1 = 0.85	785.3	0.56
313.15 K, x1 = 0.94	781.9	0.39
313.15 K, x1 = 1	779	0.28
318.15 K, x1 = 0.0809	788.6	1.55
318.15 K, x1 = 0.1599	788.9	1.45
318.15 K, x1 = 0.2402	789	1.34
318.15 K, x1 = 0.35	788.7	1.19
318.15 K, x1 = 0.44	788.1	1.07
318.15 K, x1 = 0.5599	786.5	0.9
318.15 K, x1 = 0.65	785	0.77
318.15 K, x1 = 0.74	782.9	0.64
318.15 K, x1 = 0.85	779.6	0.49
318.15 K, x1 = 0.94	776.2	0.35
318.15 K, x1 = 1	773.5	0.27
323.15 K, x1 = 0.0809	783.9	1.29
323.15 K, x1 = 0.1599	783.9	1.2
323.15 K, x1 = 0.2402	783.5	1.1
323.15 K, x1 = 0.35	782.7	0.97
323.15 K, x1 = 0.44	781.8	0.87
323.15 K, x1 = 0.5599	780.1	0.74
323.15 K, x1 = 0.65	778.4	0.64
323.15 K, x1 = 0.74	776.4	0.54
323.15 K, x1 = 0.85	773.4	0.42
323.15 K, x1 = 0.94	770.6	0.32
323.15 K, x1 = 1	768.2	0.25

— the NIST ThermoML archive (doi:10.1016/j.jct.2017.07.004)
